In patent publication US9580437B2, “Triazolopyrimidine compounds and uses thereof” (Novartis AG, priority 2014, dated 2017):
pIC50: −log10 of the molar value.

What was measured:
EED (1-441)-His protein = EED (1-441)-His protein (Homo sapiens (Human), UniProt O75530); test: EED-H3K27Me3 peptide competition binding assay by AlphaScreen; settings: read-out: (a) IC50 EED Alphascreen binding Qualified
Source text: EED-H3K27Me3 peptide competition binding assay by AlphaScreen (α-screen)

[1] = molecular target: wild type PRC2 (wtPRC2) complex (Homo sapiens (Human), UniProt O75530); test: EED LC-MS assay; assay type: biochemical; settings: read-out: (b) IC50 EED LC-MS Qualified
Sequence of wild type PRC2 (wtPRC2) complex (O75530 whole entry): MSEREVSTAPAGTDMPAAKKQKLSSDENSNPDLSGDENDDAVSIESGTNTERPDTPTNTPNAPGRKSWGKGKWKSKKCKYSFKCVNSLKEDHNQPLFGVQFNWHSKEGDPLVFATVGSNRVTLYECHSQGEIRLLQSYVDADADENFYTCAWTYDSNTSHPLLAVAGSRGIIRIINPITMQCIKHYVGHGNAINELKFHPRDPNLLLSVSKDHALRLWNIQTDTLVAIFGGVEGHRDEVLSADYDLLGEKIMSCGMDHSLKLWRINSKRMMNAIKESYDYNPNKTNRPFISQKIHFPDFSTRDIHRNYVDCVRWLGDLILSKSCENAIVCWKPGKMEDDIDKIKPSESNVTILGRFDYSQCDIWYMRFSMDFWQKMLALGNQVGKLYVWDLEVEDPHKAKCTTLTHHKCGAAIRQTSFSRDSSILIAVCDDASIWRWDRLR
Sequence of wild type PRC2 (wtPRC2) complex (Q15910 whole entry partner): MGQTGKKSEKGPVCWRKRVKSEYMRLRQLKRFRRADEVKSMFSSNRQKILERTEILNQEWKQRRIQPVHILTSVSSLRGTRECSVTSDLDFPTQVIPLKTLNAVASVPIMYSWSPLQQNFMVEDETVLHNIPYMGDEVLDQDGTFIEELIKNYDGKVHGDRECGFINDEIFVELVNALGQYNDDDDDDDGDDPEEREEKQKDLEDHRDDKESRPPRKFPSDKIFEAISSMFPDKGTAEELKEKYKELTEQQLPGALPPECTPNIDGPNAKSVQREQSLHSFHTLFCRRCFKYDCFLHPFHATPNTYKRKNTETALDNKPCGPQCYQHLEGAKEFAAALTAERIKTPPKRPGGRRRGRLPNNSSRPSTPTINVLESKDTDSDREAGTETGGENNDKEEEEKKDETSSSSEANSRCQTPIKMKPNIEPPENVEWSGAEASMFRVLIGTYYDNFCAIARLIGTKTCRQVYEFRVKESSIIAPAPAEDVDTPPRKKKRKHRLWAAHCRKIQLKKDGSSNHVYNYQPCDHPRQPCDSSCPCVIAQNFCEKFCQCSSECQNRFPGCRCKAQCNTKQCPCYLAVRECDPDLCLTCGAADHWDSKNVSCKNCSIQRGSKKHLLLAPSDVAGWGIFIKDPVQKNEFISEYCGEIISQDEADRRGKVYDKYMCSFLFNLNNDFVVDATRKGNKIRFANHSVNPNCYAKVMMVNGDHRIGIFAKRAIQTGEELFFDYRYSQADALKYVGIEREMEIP
Sequence of wild type PRC2 (wtPRC2) complex (Q15022 whole entry partner): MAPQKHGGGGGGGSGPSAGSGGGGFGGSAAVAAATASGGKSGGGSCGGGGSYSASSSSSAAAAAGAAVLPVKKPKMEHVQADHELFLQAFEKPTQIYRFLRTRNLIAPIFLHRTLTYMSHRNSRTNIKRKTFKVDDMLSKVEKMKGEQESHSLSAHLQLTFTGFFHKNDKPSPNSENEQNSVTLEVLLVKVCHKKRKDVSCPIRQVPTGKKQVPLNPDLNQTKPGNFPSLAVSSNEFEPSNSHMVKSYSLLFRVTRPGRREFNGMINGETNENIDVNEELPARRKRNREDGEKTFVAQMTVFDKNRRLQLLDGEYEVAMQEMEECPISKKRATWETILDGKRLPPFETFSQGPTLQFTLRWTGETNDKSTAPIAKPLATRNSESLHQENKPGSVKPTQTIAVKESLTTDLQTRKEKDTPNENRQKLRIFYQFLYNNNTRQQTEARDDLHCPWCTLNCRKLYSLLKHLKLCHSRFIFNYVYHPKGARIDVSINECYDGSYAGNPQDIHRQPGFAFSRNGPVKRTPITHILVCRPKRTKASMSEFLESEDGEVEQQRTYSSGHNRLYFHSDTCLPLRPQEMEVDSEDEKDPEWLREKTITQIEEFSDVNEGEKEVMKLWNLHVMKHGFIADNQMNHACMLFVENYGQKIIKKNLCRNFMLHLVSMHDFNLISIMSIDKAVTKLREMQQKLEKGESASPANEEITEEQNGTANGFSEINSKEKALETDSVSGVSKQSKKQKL
Procedure: A 6 μL solution of 3 μM of the peptide substrate H3K27Me0 (histone H3[21-44]-biotin) in reaction buffer was added to initiate each reaction. […] ELISA (H3K27 Methylation) Assay

Sequence of EED (1-441)-His protein (O75530 whole entry): as the sequence (O75530 whole entry) above

Structure (SMILES)	pIC50 (EED (1-441)-His protein)	pIC50 [1]
CS(=O)(=O)CCCOc1cncc(-c2cnc(NCc3cccc4c3CCO4)n3cnnc23)c1 [Example 98, N-((2,3-dihydrobenzofuran-4-yl)methyl)-8-(5-(3-(methylsulfonyl)propoxy)pyridin-3-yl)-[1,2,4]triazolo[4,3-c]pyrimidin-5-amine]	7.66	7.45
Cc1nc(F)ccc1-c1cnc(NCc2c(F)ccc3c2CCO3)n2cnnc12 [Example 164, N-((5-fluoro-2,3-dihydrobenzofuran-4-yl)methyl)-8-(6-fluoro-2-methylpyridin-3-yl)-[1,2,4]triazolo[4,3-c]pyrimidin-5-amine]	8.38	7.86
Cc1cc(-c2cnc(NCc3c(F)ccc4c3CCO4)n3cnnc23)ccn1 [Example 116, N-((5-fluoro-2,3-dihydrobenzofuran-4-yl)methyl)-8-(2-methylpyridin-4-yl)-[1,2,4]triazolo[4,3-c]pyrimidin-5-amine]	8.33	8.12
OCc1ncccc1-c1cnc(NCc2c(F)ccc3c2CCO3)n2cnnc12 [Example 7, (3-(5-(((5-fluoro-2,3-dihydrobenzofuran-4-yl)methyl)amino)-[1,2,4]triazolo[4,3-c]pyrimidin-8-yl)pyridin-2-yl)methanol]	8.32	8.03
Cc1cncc(-c2cnc(NCc3c(F)ccc4c3CCO4)n3cnnc23)c1 [Example 232, N-((5-fluoro-2,3-dihydrobenzofuran-4-yl)methyl)-8-(5-methylpyridin-3-yl)-[1,2,4]triazolo[4,3-c]pyrimidin-5-amine]	8.21	7.88
CNC(=O)c1ccc(-c2cnc(NCc3cccc4c3CCO4)n3cnnc23)cn1 [Example 79, 5-(5-(((2,3-dihydrobenzofuran-4-yl)methyl)amino)-[1,2,4]triazolo[4,3-c]pyrimidin-8-yl)-N-methylpicolinamide]	7.24	6.99
COc1nccc(-c2cnc(NCc3c(F)ccc4c3CCO4)n3cnnc23)c1C [Example 230, N-((5-fluoro-2,3-dihydrobenzofuran-4-yl)methyl)-8-(2-methoxy-3-methylpyridin-4-yl)-[1,2,4]triazolo[4,3-c]pyrimidin-5-amine]	7.89	7.61
CC(=O)NCc1ccc(-c2cnc(NCc3c(F)ccc4c3CCO4)n3cnnc23)cn1 [Example 171, N-((5-(5-(((5-fluoro-2,3-dihydrobenzofuran-4-yl)methyl)amino)-[1,2,4]triazolo[4,3-c]pyrimidin-8-yl)pyridin-2-yl)methyl)acetamide]	8.22	8.14
Clc1ccccc1-c1cnc(NCc2cccc3c2CCO3)n2cnnc12 [Example 32, 8-(2-chlorophenyl)-N-((2,3-dihydrobenzofuran-4-yl)methyl)-[1,2,4]triazolo[4,3-c]pyrimidin-5-amine]	7.36	7.64
Cc1ccc(-c2cnc(NCc3cccc4c3CCO4)n3cnnc23)cn1 [Example 52, N-((2,3-dihydrobenzofuran-4-yl)methyl)-8-(6-methylpyridin-3-yl)-[1,2,4]triazolo[4,3-c]pyrimidin-5-amine]	7.15	7.33
NC(=O)c1ccccc1-c1cnc(NCc2c(F)ccc3c2CCO3)n2cnnc12 [Example 122, 2-(5-(((5-fluoro-2,3-dihydrobenzofuran-4-yl)methyl)amino)-[1,2,4]triazolo[4,3-c]pyrimidin-8-yl)benzamide]	7.72	7.36
Fc1ccc2c(c1CNc1ncc(-c3ccc(N4CCSCC4)nc3)c3nncn13)CCO2 [Example 91, N-((5-fluoro-2,3-dihydrobenzofuran-4-yl)methyl)-8-(6-thiomorpholinopyridin-3-yl)-[1,2,4]triazolo[4,3-c]pyrimidin-5-amine]	8.00	7.82
CC(C)(O)c1ccc(-c2cnc(NCc3cccc4c3CCO4)n3cnnc23)cn1 [Example 99, 2-(5-(5-(((2,3-dihydrobenzofuran-4-yl)methyl)amino)-[1,2,4]triazolo[4,3-c]pyrimidin-8-yl)pyridin-2-yl)propan-2-ol]	8.38	8.17
CN(C)C(=O)c1cccc(-c2cnc(NCc3cccc4c3CCO4)n3cnnc23)c1 [Example 43, 3-(5-(((2,3-dihydrobenzofuran-4-yl)methyl)amino)-[1,2,4]triazolo[4,3-c]pyrimidin-8-yl)-N,N-dimethylbenzamide]	7.51	7.48
Cc1nn(C)cc1-c1cnc(NCc2c(F)ccc3c2CCO3)n2cnnc12 [Example 195, 8-(1,3-dimethyl-1H-pyrazol-4-yl)-N-((5-fluoro-2,3-dihydrobenzofuran-4-yl)methyl)-[1,2,4]triazolo[4,3-c]pyrimidin-5-amine]	8.23	7.94
Cc1ncccc1-c1c(C)nc(NCc2c(F)ccc3c2CCO3)n2cnnc12 [Example 203, N-((5-fluoro-2,3-dihydrobenzofuran-4-yl)methyl)-7-methyl-8-(2-methylpyridin-3-yl)-[1,2,4]triazolo[4,3-c]pyrimidin-5-amine]	7.37	6.47
N#Cc1ccc(-c2cnc(NCc3cccc4c3CCO4)n3cnnc23)cn1 [Example 62, 5-(5-(((2,3-dihydrobenzofuran-4-yl)methyl)amino)-[1,2,4]triazolo[4,3-c]pyrimidin-8-yl)picolinonitrile]	7.80	7.53
Fc1ccc2c(c1CNc1ncc(-c3ccncc3)c3nncn13)CCO2 [Example 45, N-((5-fluoro-2,3-dihydrobenzofuran-4-yl)methyl)-8-(pyridin-4-yl)-[1,2,4]triazolo[4,3-c]pyrimidin-5-amine]	7.70	7.48
c1cncc(-c2cnc(NCc3cccc4c3CCO4)n3cnnc23)c1 [Example 16, N-((2,3-dihydrobenzofuran-4-yl)methyl)-8-(pyridin-3-yl)-[1,2,4]triazolo[4,3-c]pyrimidin-5-amine]	7.97	7.62
CC(C)n1nccc1-c1cnc(NCc2c(F)ccc3c2CCO3)n2cnnc12 [Example 144, N-((5-fluoro-2,3-dihydrobenzofuran-4-yl)methyl)-8-(1-isopropyl-1H-pyrazol-5-yl)-[1,2,4]triazolo[4,3-c]pyrimidin-5-amine]	8.20	7.75
Cc1ncccc1-c1cnc(NCc2c(F)ccc3c2C(O)CO3)n2cnnc12 (centres unmarked) [Example 242, 5-fluoro-4-(((8-(2-methylpyridin-3-yl)-[1,2,4]triazolo[4,3-c]pyrimidin-5-yl)amino)methyl)-2,3-dihydrobenzofuran-3-ol]	7.86	7.30

These reach a higher pIC50 (EED (1-441)-His protein). Values come first.

pIC50 (EED (1-441)-His protein)	pIC50 [1]	Structure (SMILES)
8.62	8.29	COc1ccc(-c2cnc(NCc3c(F)ccc4c3CCO4)n3cnnc23)cn1 [Example 142, N-((5-fluoro-2,3-dihydrobenzofuran-4-yl)methyl)-8-(6-methoxypyridin-3-yl)-[1,2,4]triazolo[4,3-c]pyrimidin-5-amine]
8.82	8.72	CCc1cc(C)c(-c2cnc(NCc3c(F)ccc4c3CCO4)n3cnnc23)cn1 [Example 224, 8-(6-ethyl-4-methylpyridin-3-yl)-N-((5-fluoro-2,3-dihydrobenzofuran-4-yl)methyl)-[1,2,4]triazolo[4,3-c]pyrimidin-5-amine]
8.62	7.93	COc1cc(-c2cnc(NCc3c(F)ccc4c3CCO4)n3cnnc23)ccn1 [Example 145, N-((5-fluoro-2,3-dihydrobenzofuran-4-yl)methyl)-8-(2-methoxypyridin-4-yl)-[1,2,4]triazolo[4,3-c]pyrimidin-5-amine]
8.46	7.90	Fc1ccc2c(c1CNc1ncc(-c3ccnn3C3CC3)c3nncn13)CCO2 [Example 192, 8-(1-cyclopropyl-1H-pyrazol-5-yl)-N-((5-fluoro-2,3-dihydrobenzofuran-4-yl)methyl)-[1,2,4]triazolo[4,3-c]pyrimidin-5-amine]
8.43	8.06	O=C(c1ccc(-c2cnc(NCc3cccc4c3CCO4)n3cnnc23)cn1)N1CCCC1 [Example 80, (5-(5-(((2,3-dihydrobenzofuran-4-yl)methyl)amino)-[1,2,4]triazolo[4,3-c]pyrimidin-8-yl)pyridin-2-yl)(pyrrolidin-1-yl)methanone]
8.48	8.28	Cc1ccc(-c2cnc(NCc3c(F)ccc4c3CCO4)n3cnnc23)c(C)n1 [Example 167, 8-(2,6-dimethylpyridin-3-yl)-N-((5-fluoro-2,3-dihydrobenzofuran-4-yl)methyl)-[1,2,4]triazolo[4,3-c]pyrimidin-5-amine]
8.66	8.24	Cc1cc(OC(F)F)ncc1-c1cnc(NCc2c(F)ccc3c2CCO3)n2cnnc12 [Example 197, 8-(6-(difluoromethoxy)-4-methylpyridin-3-yl)-N-((5-fluoro-2,3-dihydrobenzofuran-4-yl)methyl)-[1,2,4]triazolo[4,3-c]pyrimidin-5-amine]
8.44	8.01	COc1cc(F)c(-c2cnc(NCc3c(F)ccc4c3CCO4)n3cnnc23)cn1 [Example 161, N-((5-fluoro-2,3-dihydrobenzofuran-4-yl)methyl)-8-(4-fluoro-6-methoxypyridin-3-yl)-[1,2,4]triazolo[4,3-c]pyrimidin-5-amine]
8.72	8.08	COc1cc(Cl)c(-c2cnc(NCc3c(F)ccc4c3CCO4)n3cnnc23)cn1 [Example 138, 8-(4-chloro-6-methoxypyridin-3-yl)-N-((5-fluoro-2,3-dihydrobenzofuran-4-yl)methyl)-[1,2,4]triazolo[4,3-c]pyrimidin-5-amine]
8.51	8.00	Fc1ccc2c(c1CNc1ncc(-n3cccn3)c3nncn13)CCO2 [Example 237, N-((5-fluoro-2,3-dihydrobenzofuran-4-yl)methyl)-8-(1H-pyrazol-1-yl)-[1,2,4]triazolo[4,3-c]pyrimidin-5-amine]
